This note sets out measurements from ChEMBL document CHEMBL4619744, “Evaluation of nitrocatechol chalcone and pyrazoline derivatives as inhibitors of catechol-O-methyltransferase and monoamine oxidase” (Bioorg Med Chem Lett, 2020).

Structures are written as SMILES.

Test [1] has as its target T1, Amine oxidase [flavin-containing] A (Homo sapiens, UniProt P21397).
T1 sequence (P21397 whole entry): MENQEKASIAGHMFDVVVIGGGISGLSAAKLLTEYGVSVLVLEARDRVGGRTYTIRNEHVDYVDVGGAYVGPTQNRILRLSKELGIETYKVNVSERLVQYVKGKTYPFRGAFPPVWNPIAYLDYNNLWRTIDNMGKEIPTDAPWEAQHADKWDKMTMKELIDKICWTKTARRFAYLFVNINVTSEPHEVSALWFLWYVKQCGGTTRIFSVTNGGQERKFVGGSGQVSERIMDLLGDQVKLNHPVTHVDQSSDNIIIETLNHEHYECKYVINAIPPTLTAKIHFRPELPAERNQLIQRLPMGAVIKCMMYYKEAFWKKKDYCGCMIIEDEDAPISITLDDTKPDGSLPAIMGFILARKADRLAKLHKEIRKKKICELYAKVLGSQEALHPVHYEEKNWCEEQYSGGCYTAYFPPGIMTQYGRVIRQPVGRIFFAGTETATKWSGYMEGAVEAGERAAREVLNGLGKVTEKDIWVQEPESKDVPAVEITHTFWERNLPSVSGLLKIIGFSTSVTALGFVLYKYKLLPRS
Briefly: Inhibition of recombinant human MAOA using kynuramine as substrate by fluorescence based assay.

Test [2] addresses T2, Catechol O-methyltransferase (Rattus norvegicus, UniProt P22734).
T2 sequence (P22734 whole entry): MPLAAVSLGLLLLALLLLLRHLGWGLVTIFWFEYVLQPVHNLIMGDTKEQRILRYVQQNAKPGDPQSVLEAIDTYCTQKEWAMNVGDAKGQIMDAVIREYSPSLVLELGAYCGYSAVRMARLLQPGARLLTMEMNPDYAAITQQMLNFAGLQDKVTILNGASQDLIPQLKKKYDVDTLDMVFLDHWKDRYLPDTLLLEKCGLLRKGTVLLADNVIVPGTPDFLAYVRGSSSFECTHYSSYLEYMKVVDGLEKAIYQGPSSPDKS
In words: Inhibition of rat liver COMT using esculetin as substrate by fluorescence based spectrophotometry.

The target of test [3] is T3, Amine oxidase [flavin-containing] B (Homo sapiens, UniProt P27338).
T3 sequence (P27338 whole entry): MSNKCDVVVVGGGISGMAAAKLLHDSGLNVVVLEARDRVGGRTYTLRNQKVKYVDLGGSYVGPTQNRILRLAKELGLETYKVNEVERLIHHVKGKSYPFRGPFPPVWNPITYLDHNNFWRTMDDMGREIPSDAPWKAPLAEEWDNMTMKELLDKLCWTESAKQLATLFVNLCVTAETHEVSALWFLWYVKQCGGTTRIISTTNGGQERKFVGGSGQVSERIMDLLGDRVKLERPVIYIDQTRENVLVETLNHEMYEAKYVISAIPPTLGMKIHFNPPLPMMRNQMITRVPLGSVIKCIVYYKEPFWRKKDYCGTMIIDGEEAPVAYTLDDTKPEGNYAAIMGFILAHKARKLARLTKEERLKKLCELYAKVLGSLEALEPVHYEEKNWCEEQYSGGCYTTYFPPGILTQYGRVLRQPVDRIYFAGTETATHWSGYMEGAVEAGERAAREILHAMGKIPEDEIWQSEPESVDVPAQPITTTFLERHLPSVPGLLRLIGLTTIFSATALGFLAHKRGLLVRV
In words: Inhibition of recombinant human MAOB using kynuramine as substrate by fluorescence based assay.

Test [4] has as its target T4, Catechol O-methyltransferase (Homo sapiens, UniProt P21964).
T4 sequence (P21964 whole entry): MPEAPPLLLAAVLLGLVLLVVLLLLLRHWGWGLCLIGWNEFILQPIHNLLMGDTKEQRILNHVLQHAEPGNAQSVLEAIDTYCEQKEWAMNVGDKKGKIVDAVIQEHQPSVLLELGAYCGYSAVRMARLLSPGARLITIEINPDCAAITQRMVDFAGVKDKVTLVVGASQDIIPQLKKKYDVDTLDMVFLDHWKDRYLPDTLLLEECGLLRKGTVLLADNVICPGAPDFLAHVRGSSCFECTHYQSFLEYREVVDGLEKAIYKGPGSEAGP
In words: Inhibition of COMT (unknown origin).

The target in test [5] is T3, Amine oxidase [flavin-containing] B. In words: Inhibition of recombinant human MAOB expressed in insect cells measured after 20 mins by fluorescence spectrophotometry.
The target of test [6] is T1, Amine oxidase [flavin-containing] A. Briefly: Inhibition of recombinant human MAOA expressed in insect cells measured after 20 mins by fluorescence spectrophotometry.
Test [7] addresses T5, Catechol O-methyltransferase (Rattus norvegicus) (UniProt P22734).
T5 sequence (whole entry): T2 sequence (P22734 whole entry)
Briefly: Potency index, ratio of IC50 of 1-(3,4-dihydroxy-5-nitro-phenyl)-3-(3-methoxyphenyl)prop-2-en-1-one to IC50 of compound for inhibition of rat liver COMT using esculetin as substrate by fluorescence based spectrophotometry.

The IC50 is the concentration at which inhibition is half-maximal. `CC(=O)N1N=C(c2cc(O)c(O)c([N+](=O)[O-])c2)CC1c1ccco1` (centres undefined): the figures for the IC50 in test [1], in test [2] and in test [3] were 98 µM, 180 nM and 77.4 µM, respectively.

`N#Cc1cccc(/C=C/C(=O)c2cc(O)c(O)c([N+](=O)[O-])c2)c1`: the IC50 in test [1] amounted to 58.9 µM; in test [2] it was 240 nM; in test [3], 60.6 µM.

As for `O=C(/C=C/c1ccoc1)c1cc(O)c(O)c([N+](=O)[O-])c1`, the concentration for half-maximal inhibition (IC50) in test [1] worked out at 52.9 µM; in test [2] it was 290 nM; in test [3], 71.4 µM.

For `O=C(/C=C/c1ccsc1)c1cc(O)c(O)c([N+](=O)[O-])c1`, the IC50 came to 41.4 µM in test [1], 230 nM in test [2] and 42.1 µM in test [3].

Take `Cn1cc(/C=C/C(=O)c2cc(O)c(O)c([N+](=O)[O-])c2)cn1`: the 50% inhibitory concentration (IC50) in test [1] is 51.5 µM; in test [2], 290 nM; in test [3], 66.2 µM.

Regarding `CC(=O)N1N=C(c2cc(O)c(O)c([N+](=O)[O-])c2)CC1c1nccs1` (centres undefined), the IC50 in test [1] came out at 84.6 µM; in test [2] it was 160 nM; in test [3] it was 68.2 µM.

On to `CC(=O)N1N=C(c2cc(O)c(O)c([N+](=O)[O-])c2)CC1c1cccc(C#N)c1` (centres undefined), for which the IC50 in test [1] turned out to be 70.6 µM; in test [2], 79 nM; in test [3] it was 55.4 µM.

Turning to `CC(=O)N1N=C(c2cc(O)c(O)c([N+](=O)[O-])c2)CC1c1ccoc1` (centres undefined), the IC50 in test [1] stood at 90.9 µM; in test [2] it was 180 nM; in test [3], 126 µM.

For `O=C(/C=C/c1cccc(Br)c1)c1cc(O)c(O)c([N+](=O)[O-])c1`, the half-inhibitory concentration (IC50) came out at 290 nM in test [4], 13.9 µM in test [5] and 76.1 µM in test [6].

Regarding `CC(=O)N1N=C(c2cc(O)c(O)c([N+](=O)[O-])c2)CC1c1ccc(C#N)cc1` (centres undefined), the results for the IC50 in test [1], in test [2] and in test [3] were 76.6 µM, 48 nM and 83.2 µM, respectively. Besides, the Ratio IC50 in test [7] turned out to be 1.46.

For `O=C(/C=C/c1nccs1)c1cc(O)c(O)c([N+](=O)[O-])c1`, the IC50 in test [1] is 69.6 µM; in test [2], 240 nM; in test [3], 59.2 µM.

Turning to `O=C(/C=C/c1cccs1)c1cc(O)c(O)c([N+](=O)[O-])c1`, the IC50 was found to be 49.9 µM in test [1], 190 nM in test [2] and 62.9 µM in test [3].

On to `COc1cccc(/C=C/C(=O)c2cc(O)c(O)c([N+](=O)[O-])c2)c1`, for which the figures for the IC50 in test [4] and in test [6] were 70 nM and 67.6 µM, respectively.

In the case of `O=C(/C=C/c1ccco1)c1cc(O)c(O)c([N+](=O)[O-])c1`, the figures for the IC50 in test [1], in test [2] and in test [3] were 60.5 µM, 230 nM and 68.2 µM, respectively.

For the compound `CC(=O)N1N=C(c2cc(O)c(O)c([N+](=O)[O-])c2)CC1c1cccc(O)c1` (centres undefined), the IC50 was determined as 87 µM in test [1], 75 nM in test [2] and 85.2 µM in test [3].

For the compound `O=C(/C=C/c1cccc(O)c1)c1cc(O)c(O)c([N+](=O)[O-])c1`, the results for the 50% inhibitory concentration (IC50) in test [1], in test [2] and in test [3] were 43.9 µM, 140 nM and 55.8 µM, respectively.

`CC(=O)N1N=C(c2cc(O)c(O)c([N+](=O)[O-])c2)CC1c1cccs1` (centres undefined): the values for the half-maximal inhibitory concentration (IC50) in test [1], in test [2] and in test [3] were 86.3 µM, 210 nM and 69.2 µM, respectively.

Take `N#Cc1ccc(/C=C/C(=O)c2cc(O)c(O)c([N+](=O)[O-])c2)cc1`: the IC50 in test [1] stood at 45.3 µM; in test [2], 180 nM; in test [3] it was 56.6 µM.
